# In ChEMBL document CHEMBL4507319 (2021):
# What was measured:
# [1] = target: Cyclin-dependent kinase 1/cyclin B (Homo sapiens) (UniProt P06493+P14635+Q8WWL7+O95067); assay: CDK1/cyclinB(h) Eurofins kinase panel; type: protein-complex assay; conditions: Compound concentration 1.0 uM
# [2] = target: Ribosomal protein S6 kinase alpha-2 (Homo sapiens, UniProt Q15349)
# [3] = target: Glycogen synthase kinase-3 beta (Homo sapiens) (UniProt P49841); assay: GSK3β(h) Eurofins kinase panel; conditions: Compound concentration 1.0 uM
# [4] = target: G protein-coupled receptor kinase 5 (Homo sapiens) (UniProt P34947); assay: GRK5(h) Eurofins kinase panel; conditions: Compound concentration 1.0 uM
# [5] = target: T1, Serine/threonine-protein kinase 17B (Homo sapiens) (UniProt O94768); assay: DRAK2(h) Eurofins kinase panel; conditions: Compound concentration 1.0 uM
# T1 sequence (whole entry): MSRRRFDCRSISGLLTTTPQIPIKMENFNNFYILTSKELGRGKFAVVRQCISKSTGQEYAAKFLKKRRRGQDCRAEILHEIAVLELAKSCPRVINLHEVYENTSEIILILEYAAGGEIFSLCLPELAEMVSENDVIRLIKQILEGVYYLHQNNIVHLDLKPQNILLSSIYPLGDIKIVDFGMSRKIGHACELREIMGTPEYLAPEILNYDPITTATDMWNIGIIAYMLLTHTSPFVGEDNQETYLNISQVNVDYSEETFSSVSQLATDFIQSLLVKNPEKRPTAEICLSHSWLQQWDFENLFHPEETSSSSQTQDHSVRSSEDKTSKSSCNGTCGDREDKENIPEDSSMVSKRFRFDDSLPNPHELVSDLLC
# [6] = target: DNA-dependent protein kinase catalytic subunit (Homo sapiens) (UniProt P78527); assay: DNA-PK(h) Eurofins kinase panel; conditions: Compound concentration 1.0 uM
# DNA-dependent protein kinase catalytic subunit (Homo sapiens), sequence (P78527 whole entry): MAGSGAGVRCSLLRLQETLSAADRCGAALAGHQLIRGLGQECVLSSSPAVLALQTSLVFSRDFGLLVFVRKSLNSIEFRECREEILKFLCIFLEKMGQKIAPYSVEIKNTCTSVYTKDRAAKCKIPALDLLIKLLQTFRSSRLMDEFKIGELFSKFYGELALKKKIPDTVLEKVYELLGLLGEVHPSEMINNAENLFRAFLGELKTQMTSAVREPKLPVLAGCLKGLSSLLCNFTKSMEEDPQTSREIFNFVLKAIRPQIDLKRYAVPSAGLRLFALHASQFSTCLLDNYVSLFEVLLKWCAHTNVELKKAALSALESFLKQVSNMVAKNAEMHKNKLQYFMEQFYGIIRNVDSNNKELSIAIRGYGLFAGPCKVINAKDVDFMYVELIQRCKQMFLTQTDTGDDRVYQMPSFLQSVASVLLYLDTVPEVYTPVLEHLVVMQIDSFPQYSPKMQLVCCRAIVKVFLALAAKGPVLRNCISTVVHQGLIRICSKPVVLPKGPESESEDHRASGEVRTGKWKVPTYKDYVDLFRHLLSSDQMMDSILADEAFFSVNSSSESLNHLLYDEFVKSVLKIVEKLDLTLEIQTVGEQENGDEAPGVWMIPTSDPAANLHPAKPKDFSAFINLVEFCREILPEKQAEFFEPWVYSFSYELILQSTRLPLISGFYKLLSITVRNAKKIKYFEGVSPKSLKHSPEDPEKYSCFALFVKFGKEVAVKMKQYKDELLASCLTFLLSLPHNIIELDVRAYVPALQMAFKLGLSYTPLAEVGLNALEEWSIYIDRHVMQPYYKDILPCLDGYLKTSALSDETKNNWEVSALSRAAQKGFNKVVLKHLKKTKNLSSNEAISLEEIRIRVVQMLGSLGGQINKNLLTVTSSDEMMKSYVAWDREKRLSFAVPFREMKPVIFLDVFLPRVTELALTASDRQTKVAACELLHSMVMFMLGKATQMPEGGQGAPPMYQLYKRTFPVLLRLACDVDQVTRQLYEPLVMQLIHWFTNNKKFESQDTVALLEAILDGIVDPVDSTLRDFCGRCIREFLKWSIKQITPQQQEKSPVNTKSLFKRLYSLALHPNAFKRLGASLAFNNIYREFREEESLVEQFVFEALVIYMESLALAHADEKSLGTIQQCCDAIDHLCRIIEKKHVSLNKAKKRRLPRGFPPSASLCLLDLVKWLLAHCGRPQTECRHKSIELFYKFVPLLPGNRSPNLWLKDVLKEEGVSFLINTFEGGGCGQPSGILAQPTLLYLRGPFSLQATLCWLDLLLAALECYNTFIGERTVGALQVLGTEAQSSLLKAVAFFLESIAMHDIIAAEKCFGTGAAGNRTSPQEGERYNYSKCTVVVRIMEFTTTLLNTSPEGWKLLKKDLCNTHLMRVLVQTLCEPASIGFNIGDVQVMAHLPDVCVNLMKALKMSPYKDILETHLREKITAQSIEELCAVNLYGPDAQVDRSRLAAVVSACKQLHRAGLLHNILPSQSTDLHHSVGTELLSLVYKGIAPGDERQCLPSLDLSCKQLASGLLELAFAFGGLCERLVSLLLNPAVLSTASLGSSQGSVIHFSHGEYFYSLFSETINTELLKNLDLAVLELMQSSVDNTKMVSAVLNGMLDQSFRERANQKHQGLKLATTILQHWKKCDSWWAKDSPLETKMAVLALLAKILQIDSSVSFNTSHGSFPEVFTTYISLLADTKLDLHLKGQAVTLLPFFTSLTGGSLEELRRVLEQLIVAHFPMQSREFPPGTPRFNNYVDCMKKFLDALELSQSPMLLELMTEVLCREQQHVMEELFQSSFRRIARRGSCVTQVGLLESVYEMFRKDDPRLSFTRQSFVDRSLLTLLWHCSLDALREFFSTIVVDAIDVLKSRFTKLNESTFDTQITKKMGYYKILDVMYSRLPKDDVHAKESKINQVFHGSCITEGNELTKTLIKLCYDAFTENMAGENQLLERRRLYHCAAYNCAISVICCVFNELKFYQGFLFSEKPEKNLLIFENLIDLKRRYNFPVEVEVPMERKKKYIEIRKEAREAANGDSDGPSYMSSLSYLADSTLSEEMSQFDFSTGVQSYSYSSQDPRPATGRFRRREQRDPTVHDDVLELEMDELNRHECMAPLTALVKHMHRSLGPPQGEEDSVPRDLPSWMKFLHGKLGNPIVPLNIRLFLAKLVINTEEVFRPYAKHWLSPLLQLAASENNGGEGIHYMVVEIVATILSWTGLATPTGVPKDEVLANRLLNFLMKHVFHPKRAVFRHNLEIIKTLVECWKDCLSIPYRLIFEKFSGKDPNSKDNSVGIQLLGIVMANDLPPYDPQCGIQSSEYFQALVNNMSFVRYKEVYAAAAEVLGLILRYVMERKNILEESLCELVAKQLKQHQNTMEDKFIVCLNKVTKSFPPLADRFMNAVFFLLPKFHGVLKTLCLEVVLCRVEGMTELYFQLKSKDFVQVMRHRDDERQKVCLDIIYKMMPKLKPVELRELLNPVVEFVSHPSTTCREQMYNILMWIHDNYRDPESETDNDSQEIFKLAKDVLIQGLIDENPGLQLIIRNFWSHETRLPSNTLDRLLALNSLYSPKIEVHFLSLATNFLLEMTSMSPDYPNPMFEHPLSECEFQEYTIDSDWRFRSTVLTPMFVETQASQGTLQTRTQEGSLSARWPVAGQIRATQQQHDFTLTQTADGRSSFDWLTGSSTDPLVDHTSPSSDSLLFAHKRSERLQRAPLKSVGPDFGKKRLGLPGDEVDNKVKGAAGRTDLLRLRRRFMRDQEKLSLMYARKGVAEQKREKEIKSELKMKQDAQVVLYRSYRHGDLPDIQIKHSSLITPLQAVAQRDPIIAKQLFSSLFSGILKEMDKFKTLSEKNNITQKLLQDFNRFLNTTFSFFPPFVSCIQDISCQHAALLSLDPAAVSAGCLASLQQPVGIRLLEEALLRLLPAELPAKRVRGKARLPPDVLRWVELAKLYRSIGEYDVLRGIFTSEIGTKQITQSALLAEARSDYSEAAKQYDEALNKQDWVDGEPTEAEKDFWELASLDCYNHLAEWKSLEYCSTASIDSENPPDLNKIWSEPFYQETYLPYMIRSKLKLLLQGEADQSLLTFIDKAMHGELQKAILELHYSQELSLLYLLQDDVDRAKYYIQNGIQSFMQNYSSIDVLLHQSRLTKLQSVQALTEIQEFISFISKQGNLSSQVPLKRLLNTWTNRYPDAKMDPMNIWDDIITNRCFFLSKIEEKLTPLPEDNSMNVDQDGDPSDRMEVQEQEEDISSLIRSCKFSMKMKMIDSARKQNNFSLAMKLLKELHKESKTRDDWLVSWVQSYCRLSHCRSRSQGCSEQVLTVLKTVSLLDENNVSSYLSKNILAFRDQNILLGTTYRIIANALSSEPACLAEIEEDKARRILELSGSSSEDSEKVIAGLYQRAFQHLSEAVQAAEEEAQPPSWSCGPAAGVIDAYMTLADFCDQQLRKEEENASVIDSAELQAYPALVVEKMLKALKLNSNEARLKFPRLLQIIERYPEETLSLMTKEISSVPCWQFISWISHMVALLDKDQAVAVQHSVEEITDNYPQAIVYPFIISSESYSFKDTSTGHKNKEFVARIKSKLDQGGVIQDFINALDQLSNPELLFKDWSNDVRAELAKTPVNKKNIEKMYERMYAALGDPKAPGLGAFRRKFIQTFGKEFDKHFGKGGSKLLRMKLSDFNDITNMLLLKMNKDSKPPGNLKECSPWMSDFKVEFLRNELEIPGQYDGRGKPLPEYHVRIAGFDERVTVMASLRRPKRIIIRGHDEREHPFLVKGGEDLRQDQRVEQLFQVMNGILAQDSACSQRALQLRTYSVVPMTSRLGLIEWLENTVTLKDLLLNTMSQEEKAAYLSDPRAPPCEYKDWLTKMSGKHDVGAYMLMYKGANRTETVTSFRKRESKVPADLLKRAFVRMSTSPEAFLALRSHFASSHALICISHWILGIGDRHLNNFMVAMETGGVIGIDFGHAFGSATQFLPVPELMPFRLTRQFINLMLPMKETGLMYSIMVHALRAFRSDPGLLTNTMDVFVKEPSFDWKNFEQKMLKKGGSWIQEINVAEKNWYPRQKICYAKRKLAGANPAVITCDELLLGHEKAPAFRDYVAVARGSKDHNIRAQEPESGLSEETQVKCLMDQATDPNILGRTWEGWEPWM
# [7] = target: T2, Serine/threonine-protein kinase Nek3 (Homo sapiens) (UniProt P51956); assay: NEK3(h) Eurofins kinase panel; conditions: Compound concentration 1.0 uM
# T2 sequence (whole entry): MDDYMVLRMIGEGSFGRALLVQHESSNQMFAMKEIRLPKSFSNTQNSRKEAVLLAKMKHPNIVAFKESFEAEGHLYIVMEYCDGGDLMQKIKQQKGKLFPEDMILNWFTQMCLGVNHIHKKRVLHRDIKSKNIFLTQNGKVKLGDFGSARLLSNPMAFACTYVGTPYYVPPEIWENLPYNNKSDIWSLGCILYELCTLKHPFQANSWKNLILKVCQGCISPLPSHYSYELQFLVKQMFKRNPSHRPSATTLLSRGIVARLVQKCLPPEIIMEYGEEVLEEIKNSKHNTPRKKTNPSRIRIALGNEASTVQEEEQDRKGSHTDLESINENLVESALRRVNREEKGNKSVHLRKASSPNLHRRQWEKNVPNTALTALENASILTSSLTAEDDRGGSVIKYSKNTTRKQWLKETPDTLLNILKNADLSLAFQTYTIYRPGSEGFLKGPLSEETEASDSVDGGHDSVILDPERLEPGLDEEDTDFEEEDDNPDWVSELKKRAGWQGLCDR
# [8] = target: Dual specificity protein kinase CLK4 (Homo sapiens) (UniProt Q9HAZ1); assay: CLK4(h) Eurofins kinase panel; conditions: Compound concentration 1.0 uM
# Dual specificity protein kinase CLK4 (Homo sapiens), sequence (Q9HAZ1 whole entry, looked up): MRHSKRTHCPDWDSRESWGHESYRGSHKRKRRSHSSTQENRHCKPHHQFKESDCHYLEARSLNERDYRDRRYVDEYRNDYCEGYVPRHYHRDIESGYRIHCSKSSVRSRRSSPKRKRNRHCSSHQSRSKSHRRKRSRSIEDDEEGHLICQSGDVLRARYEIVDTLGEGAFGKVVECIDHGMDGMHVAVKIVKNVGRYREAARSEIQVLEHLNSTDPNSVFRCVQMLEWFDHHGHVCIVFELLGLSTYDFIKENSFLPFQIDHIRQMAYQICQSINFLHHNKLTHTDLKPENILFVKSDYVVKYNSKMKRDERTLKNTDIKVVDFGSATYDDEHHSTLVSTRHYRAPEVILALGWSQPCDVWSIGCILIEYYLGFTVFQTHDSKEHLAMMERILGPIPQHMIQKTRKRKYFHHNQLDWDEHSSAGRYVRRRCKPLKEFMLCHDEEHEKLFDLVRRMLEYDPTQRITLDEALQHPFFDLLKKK
# [9] = target: 5'-AMP-activated protein kinase catalytic subunit alpha-2 (Homo sapiens, UniProt P54646); conditions: Compound concentration 1.0 uM
# [10] = target: T3, Serine/threonine-protein kinase haspin (Homo sapiens) (UniProt Q8TF76); assay: Haspin(h) Eurofins kinase panel; conditions: Compound concentration 1.0 uM
# T3 sequence (whole entry): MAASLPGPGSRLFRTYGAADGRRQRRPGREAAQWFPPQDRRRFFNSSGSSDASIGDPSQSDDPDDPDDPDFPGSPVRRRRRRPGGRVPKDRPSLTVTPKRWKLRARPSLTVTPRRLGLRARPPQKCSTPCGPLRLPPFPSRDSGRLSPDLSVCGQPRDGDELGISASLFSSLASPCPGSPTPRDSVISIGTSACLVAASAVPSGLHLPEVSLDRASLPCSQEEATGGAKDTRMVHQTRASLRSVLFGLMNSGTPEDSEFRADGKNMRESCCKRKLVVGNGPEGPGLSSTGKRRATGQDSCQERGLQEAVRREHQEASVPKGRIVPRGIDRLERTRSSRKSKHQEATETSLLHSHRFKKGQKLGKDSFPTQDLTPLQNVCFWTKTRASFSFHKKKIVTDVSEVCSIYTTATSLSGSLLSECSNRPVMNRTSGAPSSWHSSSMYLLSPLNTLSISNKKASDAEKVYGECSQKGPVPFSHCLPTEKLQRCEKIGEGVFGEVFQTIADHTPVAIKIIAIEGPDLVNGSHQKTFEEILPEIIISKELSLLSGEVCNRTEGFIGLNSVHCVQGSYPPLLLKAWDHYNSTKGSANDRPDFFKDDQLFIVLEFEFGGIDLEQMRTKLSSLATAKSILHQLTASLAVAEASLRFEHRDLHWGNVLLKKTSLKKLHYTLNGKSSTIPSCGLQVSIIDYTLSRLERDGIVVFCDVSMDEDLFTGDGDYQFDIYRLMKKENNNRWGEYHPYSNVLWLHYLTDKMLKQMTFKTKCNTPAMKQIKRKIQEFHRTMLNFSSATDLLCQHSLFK
# [11] = target: Calcium/calmodulin-dependent protein kinase type 1D (Homo sapiens) (UniProt Q8IU85); assay: CaMKIdelta(h) Eurofins kinase panel; conditions: Compound concentration 1.0 uM
# Calcium/calmodulin-dependent protein kinase type 1D (Homo sapiens), sequence (Q8IU85 whole entry, looked up): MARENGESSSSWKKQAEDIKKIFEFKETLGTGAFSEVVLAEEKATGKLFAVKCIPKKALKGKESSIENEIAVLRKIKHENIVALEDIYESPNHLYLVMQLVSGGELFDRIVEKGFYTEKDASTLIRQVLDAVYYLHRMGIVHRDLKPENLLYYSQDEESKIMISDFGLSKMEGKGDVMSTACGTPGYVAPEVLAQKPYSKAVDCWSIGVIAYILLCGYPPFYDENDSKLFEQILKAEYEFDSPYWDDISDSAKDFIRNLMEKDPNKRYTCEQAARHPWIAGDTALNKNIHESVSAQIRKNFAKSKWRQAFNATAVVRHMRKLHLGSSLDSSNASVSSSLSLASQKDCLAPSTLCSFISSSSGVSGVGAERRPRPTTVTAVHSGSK
# [12] = target: T4, Dual specificity protein kinase TTK (Homo sapiens) (UniProt P33981); assay: TTK(h) Eurofins kinase panel; conditions: Compound concentration 1.0 uM
# T4 sequence (whole entry): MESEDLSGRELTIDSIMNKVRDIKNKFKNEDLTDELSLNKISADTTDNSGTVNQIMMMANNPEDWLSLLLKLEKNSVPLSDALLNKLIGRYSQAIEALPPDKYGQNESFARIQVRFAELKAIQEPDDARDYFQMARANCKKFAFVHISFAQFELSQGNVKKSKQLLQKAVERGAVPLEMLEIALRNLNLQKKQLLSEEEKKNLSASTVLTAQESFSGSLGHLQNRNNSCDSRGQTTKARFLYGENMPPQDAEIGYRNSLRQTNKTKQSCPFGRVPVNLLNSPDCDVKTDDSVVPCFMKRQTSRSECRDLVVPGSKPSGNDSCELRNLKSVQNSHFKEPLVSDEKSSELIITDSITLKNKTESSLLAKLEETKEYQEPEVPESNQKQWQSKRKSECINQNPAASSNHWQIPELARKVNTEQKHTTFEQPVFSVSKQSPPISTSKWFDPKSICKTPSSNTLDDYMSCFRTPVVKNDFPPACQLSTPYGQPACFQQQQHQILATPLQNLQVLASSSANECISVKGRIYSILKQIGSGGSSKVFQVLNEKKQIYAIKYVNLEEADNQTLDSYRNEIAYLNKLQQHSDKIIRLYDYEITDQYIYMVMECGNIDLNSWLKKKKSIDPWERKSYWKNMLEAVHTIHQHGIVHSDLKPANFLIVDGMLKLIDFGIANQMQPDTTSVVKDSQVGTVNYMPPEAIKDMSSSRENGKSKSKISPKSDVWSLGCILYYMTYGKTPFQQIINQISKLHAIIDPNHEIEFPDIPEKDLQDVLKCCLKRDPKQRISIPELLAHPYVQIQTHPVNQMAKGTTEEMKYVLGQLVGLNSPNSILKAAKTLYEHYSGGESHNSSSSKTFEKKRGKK
compound,measurement,setting,value
CCc1ccccc1C(=O)Nc1n[nH]c2c(C)c(F)c(C3C(C#N)=C(C)N(C)C(C)=C3C#N)cc12 [BAY-3827],% residual kinase activity,[1],98%
same,IC50,[2],24 nM
same,% residual kinase activity,[3],58%
same,% residual kinase activity,[4],98%
same,% residual kinase activity,[5],99%
same,% residual kinase activity,[6],94%
same,% residual kinase activity,[7],102%
same,% residual kinase activity,[8],104%
same,% residual kinase activity,[9],0%
same,% residual kinase activity,[10],107%
same,% residual kinase activity,[11],104%
same,% residual kinase activity,[12],90%
